{"source": "paper PMC7403827", "about": "(Clinical and Translational Medicine, 2020)", "test_system": "EGFR‐mutant advanced non‐squamous NSCLC", "test": "Antitumor response (RECIST 1.1), PFS and OS", "conditions": "for median PFS: Kaplan‐Meier", "key": {"[1]": {"conditions": "Apatinib Dose Cohort 250mg + gefitinib 250 mg, evaluable patients"}, "[2]": {"conditions": "Apatinib Dose Cohort 500mg + gefitinib 250 mg, evaluable patients"}, "[3]": {"conditions": "Total, both apatinib dose cohorts (n = 11)"}}, "text": "Other endpoints included objective response rate (ORR) and disease control rate (DCR), progression‐free survival (PFS), and overall survival (OS). […] Combination therapy was continued until the status of progression disease, unbearable toxicity, withdrawal of informed consent form or discontinuation that was at the discretion of the principal investigator (see Supporting Information).\nAdverse events (AEs) in line with the version 4.0 of National Cancer Institute's Common Terminology Criteria for Adverse Events (CTCAE 4.0) were evaluated by the investigators. AEs were strictly recorded from the timepoint that ICF was obtained to 28 days after the finish of study. Imaging examinations was conducted before treatment, at the finish of the first follow‐up, and every other two follow‐ups afterward by taking the same examinations. Response of tumor was assessed based on the RECIST 1.1 guidelines. Primary assessment for antitumor response: (a) ORR, defining as the proportion of participants that achieved a complete response (CR) or a partial response (PR); (b) disease control rate (DCR), defining as the proportion of participants reached a status of CR or PR or stable disease (SD). After 4 weeks, best overall response (BOR) was confirmed.\nPatients in the ITT analysis who had complete safety records were pooled in the safety set (SS). The qualitative and quantitative data were summarized with the descriptive statistics. Efficacy was also assessed in the ITT analysis. The Kaplan‐Meier method described PFS and OS. Survival distribution differences were evaluated by the log‐rank test. […] Fisher's exact test compared the response rate in the various subgroups. Two‐sided tests were applied. […] All statistical analyses and graphs were made by the Statistical Package for Social Sciences (SPSS) 23.0 and GraphPad Prism 7.", "data": [{"molecule": "N#CC1(c2ccc(NC(=O)c3cccnc3NCc3ccncc3)cc2)CCCC1", "note": "[Apatinib]", "values": [{"measurement": "CR, patients", "setting": "[1]", "result": 0}, {"measurement": "Disease Control CR+PR+SD", "setting": "[1]", "result": "6 (100.0) n (%)"}, {"measurement": "Objective Response CR+PR", "setting": "[1]", "result": "5 (83.3) n (%)"}, {"measurement": "PD, patients", "setting": "[1]", "result": 0}, {"measurement": "PR, patients", "setting": "[1]", "result": 5}, {"measurement": "CR, patients", "setting": "[2]", "result": 0}, {"measurement": "Disease Control CR+PR+SD", "setting": "[2]", "result": "4 (80.0) n (%)"}, {"measurement": "Objective Response CR+PR", "setting": "[2]", "result": "4 (80.0) n (%)"}, {"measurement": "PD, patients", "setting": "[2]", "result": 1}, {"measurement": "PR, patients", "setting": "[2]", "result": 4}, {"measurement": "median PFS", "setting": "Cohort A (apatinib 500 mg + gefitinib 250 mg)", "result": 19.2, "unit": "months"}, {"measurement": "ORR", "setting": "Cohort A: apatinib 500 mg + gefitinib 250 mg (4/5)", "result": 80, "unit": "%"}, {"measurement": "median PFS", "setting": "Cohort B (apatinib 250 mg + gefitinib 250 mg)", "result": 13.4, "unit": "months"}, {"measurement": "ORR", "setting": "Cohort B: apatinib 250 mg + gefitinib 250 mg (5/6)", "result": 83.3, "unit": "%"}, {"measurement": "CR, patients", "setting": "[3]", "result": 0}, {"measurement": "Disease Control CR+PR+SD", "setting": "[3]", "result": "10 (90.9) n (%)"}, {"measurement": "Objective Response CR+PR", "setting": "[3]", "result": "9 (81.8) n (%)"}, {"measurement": "PD, patients", "setting": "[3]", "result": 1}, {"measurement": "PR, patients", "setting": "[3]", "result": 9}, {"measurement": "DCR", "setting": "apatinib 250 mg group + gefitinib 250 mg (6/6)", "result": 100, "unit": "%"}, {"measurement": "DCR", "setting": "apatinib 500 mg group + gefitinib 250 mg (4/5)", "result": 80.0, "unit": "%"}]}]}
